In patent publication US20130165368A1, “ANTIMICROBIAL COMPOUNDS” (priority 2010, published 2013):
Values after ≈ are worked out from the molar mass of the structure shown. Like-named read-outs stand apart in the source and are kept apart here.

Key:
Format in all cases: cell-based
MRSA EMRSA 16 00036/95 = assay: MIC agar dilution, MRSA strain 46; conditions: Staphylococcus aureus
Experimental: (§1) Molar equivalent concentrations were used to allow comparison between compounds of differing molecular mass. Due to weighing difficulties, any compound in solid form was melted in a water bath prior to dilution. To make ten-times strength concentrations, which takes into account agar dilution, 0.0352 mmol of each compound was weighed into plastic universal bottles and 4 mL of sterile distilled water (SDW) was added. To produce a homogenous emulsion the universals were vortexed; once achieved the emulsions were serial diluted by adding 2 mL to 2 mL of SDW.
(§2) For every 100 mL of Isosensitest agar (IST) (CM0471; Oxoid, Basingstoke, England), 3.1 g of the IST powder was added to 100 mL SDW (as per manufacturer's instructions) and sterilised for 15 minutes at 121° C. Once sterilised, the molten agar was cooled to 50° C. in a water-bath. Subsequently 4.8 g of CCEY powder (BC2160; Bioconnections, Wetherby, England), also known as Brazier's medium, was added to 100 mL SDW for every 100 mL of agar needed. This was then sterilised for 15 minutes at 121° C. Once sterilised the molten agar was cooled to 50° C. in a water-bath and 4 mL of egg-yolk emulsion (S2073; TCS Biosciences Ltd, Buckingham, United Kingdom) and 1 mL of lysed defibrinated horse blood (HB035; TCS Biosciences Ltd, Buckingham, United Kingdom) were also added for every 100 mL needed. Horse blood lysis is achieved by dilution to half concentration with SDW; when fully lysed the mixture will turn dark red in colour.
(§3) 18 mL agar was added to each universal and then poured into sterile Petri dishes. This step creates a 1/10 dilution resulting in agar plates of the required strength. Control plates for each set of strains were created by adding 18 mL of agar to 2 mL of SDW.
(§4) Suspensions of each bacterial species were prepared with a density equal to that of a 0.5 McFarland standard using a densitometer. All suspensions were made using sterile distilled water and fresh 18-20 hour cultures. As a 0.5 McFarland standard contains 1.5×10^8 CFU/mL and the multipoint inoculators applies 1 μL spots of liquid, each bacterial suspension was diluted 1/15 (20 μL suspension to 280 μL sterile distilled water).
(§5) Bacterial suspensions were prepared from fresh 18-24 hour cultures as previously described. 1 μL of each strain was inoculated onto all 100 agar plates containing a different chemical concentration and the 2 control plates. This was done using a multipoint inoculator which inoculates 20 strains per plate. All plates were incubated for 22 hours at 37° C. in aerobic conditions.
(§6) Each plate was examined for bacterial growth after 22 and 48 hours, with each being incubated in between examinations. A positive result was recorded as growth of ≧10 colonies. A negative result was recorded as growth of <10 colonies as this is equivalent to 99.9% inhibition. The lowest concentration of chemical that inhibited growth was recorded as the MIC. The results are recorded in Table IV below, where the numbers are quoted in mmol/L.
(§7) Given the positive performance of the ethoxylates of lauryl alcohol in reducing the MIC for a number of the micro-organisms tested, further MIC testing of Laureth-1 [C12E1] through to Laureth-8 [C12E8] was conducted on each of the following: • 10 strains of vancomycin-resistant enterococci (VRE)—listed in Table V below; and • 20 strains of methicillin-resistant Staphylococcus aureus (MRSA)—listed in Table VI.
(§8) The alkanol, alkanol derivatives, agar plates, and inocula were all prepared in the same way as described above.
(§9) The plates were examined in the same manner as described above and the results are recorded in Table VII below, where the numbers are quoted in mmol/L.

MRSA EMRSA 16 03732/95 = assay: MIC agar dilution, MRSA strain 45; conditions: Staphylococcus aureus
Experimental: as §1, §2, §3, §4, §5, §6, §7, §8, §9

[1] = tested on: Enterococcus faecium (VRE) 12185 Clin waste; assay: MIC agar dilution, VRE strain 24
Experimental: as §1, §2, §3, §4, §5, §6, §7, §8, §9

Bacillus subtilis = assay: MIC agar dilution, micro-organism 18 (9372); conditions: Bacillus subtilis 9372, read-out: MIC
In short: (§10)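 Twofold dilutions of compound emulsions in water were set in Isosensitest agar with Brazier's CCEY medium, egg yolk and lysed horse blood. Spots of 1 µL from 0.5 McFarland suspensions diluted 1/15 were incubated aerobically at 37 °C and read at 22 and 48 h. MIC (mmol/L) was the lowest concentration giving <10 colonies.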

[2] = tested on: Enterococcus faecalis (VRE) MB 726; assay: MIC agar dilution, VRE strain 28
Experimental: as §1, §2, §3, §4, §5, §6, §7, §8, §9

[3] = tested on: Enterococcus faecium (VRE) NCTC 12952; assay: MIC agar dilution, VRE strain 30
Experimental: as §1, §2, §3, §4, §5, §6, §7, §8, §9

Enterococcus faecalis = assay: MIC agar dilution, micro-organism 17 (775); conditions: Enterococcus faecalis 775, read-out: MIC
In short: as §10

Providencia rettgeri = assay: MIC agar dilution, micro-organism 3 (7475); conditions: Providencia rettgeri 7475, read-out: MIC
In short: as §10

Listeria monocytogenes = assay: MIC agar dilution, micro-organism 15 (11994); conditions: Listeria monocytogenes 11994, read-out: MIC
In short: as §10

MRSA EMRSA 16 18200/95 = assay: MIC agar dilution, MRSA strain 48; conditions: Staphylococcus aureus
Experimental: as §1, §2, §3, §4, §5, §6, §7, §8, §9

Candida albicans = assay: MIC agar dilution, micro-organism 19 (90028); conditions: Candida albicans 90028, read-out: MIC
In short: as §10

Steptococcus pyogenes = assay: MIC agar dilution, micro-organism 11 (8306); conditions: Steptococcus pyogenes 8306, read-out: MIC
In short: as §10

[4] = tested on: Enterococcus casseliflavus (VRE) Clin waste; assay: MIC agar dilution, VRE strain 23
Experimental: as §1, §2, §3, §4, §5, §6, §7, §8, §9

Compound | MIC (MRSA EMRSA 16 00036/95; 22 hrs) [µM] | MIC (MRSA EMRSA 16 00036/95; 48 hrs) [µM] | MIC (MRSA EMRSA 16 03732/95; 22 hrs) [µM] | MIC (MRSA EMRSA 16 03732/95; 48 hrs) [µM] | MIC ([1]; 22 hrs) [µM] | MIC ([1]; 48 hrs) [µM] | MIC (Bacillus subtilis; 22 hrs) [µM] | MIC (Bacillus subtilis; 48 hrs) [µM] | MIC ([2]; 22 hrs) [µM] | MIC ([2]; 48 hrs) [µM] | MIC ([3]; 22 hrs) [µM] | MIC ([3]; 48 hrs) [µM] | MIC (Enterococcus faecalis; 22 hrs) [µM] | MIC (Enterococcus faecalis; 48 hrs) [µM] | MIC (Providencia rettgeri; 22 hrs) [µM] | MIC (Providencia rettgeri; 48 hrs) [µM] | MIC (Listeria monocytogenes; 22 hrs) [µM] | MIC (Listeria monocytogenes; 48 hrs) [µM] | MIC (MRSA EMRSA 16 18200/95; 22 hrs) [µM] | MIC (MRSA EMRSA 16 18200/95; 48 hrs) [µM] | other results
CCCCCCCCCCCCOCCOCCOCCO [L3, Triethylene Glycol Monododecyl Ether] | 55 (≈ 17.5 µg/mL) | 55 (≈ 17.5 µg/mL) | 110 (≈ 35 µg/mL) | 110 (≈ 35 µg/mL) | 880 (≈ 280 µg/mL) | > 880 | 110 (≈ 35 µg/mL) | 110 (≈ 35 µg/mL) | 220 (≈ 70.1 µg/mL) | 220 (≈ 70.1 µg/mL) | 220 (≈ 70.1 µg/mL) | 220 (≈ 70.1 µg/mL) | 110 (≈ 35 µg/mL) | 110 (≈ 35 µg/mL) | > 880 | > 880 | 110 (≈ 35 µg/mL) | 220 (≈ 70.1 µg/mL) | 110 (≈ 35 µg/mL) | 110 (≈ 35 µg/mL) | MIC (Candida albicans; 22 hrs): 220 µM (≈ 70.1 µg/mL); MIC (Candida albicans; 48 hrs): 220 µM (≈ 70.1 µg/mL); MIC (Steptococcus pyogenes; 22 h, 22 hrs): ≤ 50 µM; MIC (Steptococcus pyogenes; 48 h, 48 hrs): ≤ 50 µM; MIC ([4]; 22 hrs): 220 µM (≈ 70.1 µg/mL); MIC ([4]; 48 hrs): 220 µM (≈ 70.1 µg/mL)
CCCCCCCCCCCCOCCOCCOCCOCCO [L4, Tetraethylene Glycol Monododecyl Ether] | 55 (≈ 19.9 µg/mL) | 55 (≈ 19.9 µg/mL) | 110 (≈ 39.9 µg/mL) | 110 (≈ 39.9 µg/mL) | 220 (≈ 79.8 µg/mL) | 440 (≈ 160 µg/mL) | 110 (≈ 39.9 µg/mL) | 110 (≈ 39.9 µg/mL) | 220 (≈ 79.8 µg/mL) | 220 (≈ 79.8 µg/mL) | 440 (≈ 160 µg/mL) | 440 (≈ 160 µg/mL) | 110 (≈ 39.9 µg/mL) | 110 (≈ 39.9 µg/mL) | > 880 | > 880 | 110 (≈ 39.9 µg/mL) | 220 (≈ 79.8 µg/mL) | 55 (≈ 19.9 µg/mL) | 55 (≈ 19.9 µg/mL) | MIC (Candida albicans; 22 hrs): 440 µM (≈ 160 µg/mL); MIC (Candida albicans; 48 hrs): 220 µM (≈ 79.8 µg/mL); MIC (Steptococcus pyogenes; 22 h, 22 hrs): ≤ 50 µM; MIC (Steptococcus pyogenes; 48 h, 48 hrs): ≤ 50 µM; MIC ([4]; 22 hrs): 110 µM (≈ 39.9 µg/mL); MIC ([4]; 48 hrs): 110 µM (≈ 39.9 µg/mL)
CCCCCCCCCCCCOCCOCCOCCOCCOCCO [L5, Pentaethylene Glycol Monododecyl Ether] | 110 (≈ 44.7 µg/mL) | 110 (≈ 44.7 µg/mL) | 110 (≈ 44.7 µg/mL) | 110 (≈ 44.7 µg/mL) | 220 (≈ 89.5 µg/mL) | 220 (≈ 89.5 µg/mL) | 110 (≈ 44.7 µg/mL) | 110 (≈ 44.7 µg/mL) | 220 (≈ 89.5 µg/mL) | 220 (≈ 89.5 µg/mL) | 220 (≈ 89.5 µg/mL) | 220 (≈ 89.5 µg/mL) | 110 (≈ 44.7 µg/mL) | 110 (≈ 44.7 µg/mL) | > 880 | > 880 | 110 (≈ 44.7 µg/mL) | 220 (≈ 89.5 µg/mL) | 110 (≈ 44.7 µg/mL) | 110 (≈ 44.7 µg/mL) | MIC (Candida albicans; 22 hrs): 440 µM (≈ 179 µg/mL); MIC (Candida albicans; 48 hrs): 440 µM (≈ 179 µg/mL); MIC (Steptococcus pyogenes; 22 h, 22 hrs): ≤ 50 µM; MIC (Steptococcus pyogenes; 48 h, 48 hrs): ≤ 50 µM; MIC ([4]; 22 hrs): 110 µM (≈ 44.7 µg/mL); MIC ([4]; 48 hrs): 110 µM (≈ 44.7 µg/mL)
CCCCCCCCCCCCOCCOCCOCCOCCOCCOCCO [L6, Hexaethylene Glycol Monododecyl Ether] | 220 (≈ 99.1 µg/mL) | 440 (≈ 198 µg/mL) | 220 (≈ 99.1 µg/mL) | 220 (≈ 99.1 µg/mL) | 880 (≈ 397 µg/mL) | 880 (≈ 397 µg/mL) | 110 (≈ 49.6 µg/mL) | 110 (≈ 49.6 µg/mL) | > 880 | > 880 | > 880 | > 880 | 110 (≈ 49.6 µg/mL) | 110 (≈ 49.6 µg/mL) | > 880 | > 880 | 110 (≈ 49.6 µg/mL) | 110 (≈ 49.6 µg/mL) | 110 (≈ 49.6 µg/mL) | 220 (≈ 99.1 µg/mL) | MIC (Candida albicans; 22 hrs): > 880 µM; MIC (Candida albicans; 48 hrs): 880 µM (≈ 397 µg/mL); MIC (Steptococcus pyogenes; 22 h, 22 hrs): ≤ 50 µM; MIC (Steptococcus pyogenes; 48 h, 48 hrs): ≤ 50 µM; MIC ([4]; 22 hrs): 220 µM (≈ 99.1 µg/mL); MIC ([4]; 48 hrs): 220 µM (≈ 99.1 µg/mL)
